Measured values from patent US20130324555A1, “Method of use of pharmaceutical formulations for the treatment of apicomplexan diseases in animals” (priority 2012, published 2013).
In brackets after ≈: the same amount, converted by molar mass. Values belong to the molecule of their own block, whether it stands above or below them.

Key:
[1] = test system: P. falciparum D6 (CDC/Sierra Leone); experiment: Malaria SYBR Green 1-Based Fluorescence (MSF) Assay, strain D6; type: cell-based; conditions: Plasmodium falciparum, D6, read-out: D6 IC50
Protocol: Compound activity against P. falciparum, the causative agent of malaria, was assessed using the Malaria SYBR Green 1-Based Fluorescence (MSF) Assay. This microtiter plate drug sensitivity assay uses the presence of malarial DNA as a measure of parasitic proliferation. The assay is a microtiter plate drug sensitivity assay that uses the presence of malarial DNA as a measure of parasitic proliferation in the presence of antimalarial drugs or experimental compounds based on modifications of previously described methods (Plouffe et al., Proc Natl Acad Sci USA. 2008, 105, 9059-9064), (Johnson et al., Antimicrob. Agents Chemother. 2005, 49, 3463-3467).
Selected compounds were examined for activity against two strains of P. falciparum: D6 (CDC/Sierra Leone), a drug-sensitive and readily killed by chloroquine, and TM90-C235, a multi-drug resistant strain resistant to chloroquine.
D6 (CDC/Sierra Leone) and TM90-C235 (WRAIR, Thailand) laboratory strains of P. falciparum were used for each drug sensitivity assessment. The parasite strains were maintained continuously in long-term cultures as previously described in Johnson et al, and P. falciparum strains in late-ring or early-trophozoite stages were cultured in predosed 384-well microtiter drug assay plates in 38 μl culture volume per well at a starting parasitemia of 0.3% and a hematocrit of 2%. Pre-dosed, sterile, 384 well black optical bottom microtiter drug plates for use in the MSF assay were produced using a Tecan EVO Freedom Liquid Handling System (Tecan US, Durham, N.C.). Dose response plates were produced at a final concentration ranging from 0.5-10000 ng/ml in quadruplicate (twelve two-fold serial dilutions of each test compound or chloroquine control in DMSO. Each run was validated by a batch control plate with chloroquine (Sigma-Aldrich Co., Catalog #C6628) at a final concentration of 2000 ng/ml. The cultures were incubated for 72 hours at 37° C., 5% CO2, 5% O2 and 90% N2. Lysis buffer (38 μl per well), consisting of 20 mM Tris HCl, 5 mM EDTA, 1.6% Triton X, 0.016% saponin, and SYBR green I dye at a 20× concentration (Invitrogen, Catalog #S-7567) was then added to the assay plates utilizing the Tecan EVO Freedom system for a final SYBR Green concentration of 10×. Plates were incubated in the dark at room temperature in the dark for 24 hours.
Compound activity was assessed by examining for the relative fluorescence units (RFU) per well using the Tecan Genios Plus (Tecan US, Inc., Durham, N.C.). GraphPad Prism (GraphPad Software Inc., San Diego, Calif.) using the nonlinear regression (sigmoidal dose-response/variable slope) equation was used to determine IC50 values.

[2] = test system: T. gondii tachyzoites; experiment: In vitro inhibition of T. gondii tachyzoites (RH-YFP fluorescence / [3H]-uracil incorporation); type: cell-based; conditions: for MIC50 / MIC90: Toxoplasma gondii, T. gondii tachyzoites in HFF cells; for activity against T. gondii tachyzoites, in words: only MIC50≦1 μM considered active
Protocol: Determination of the anti-apicomplexan activity of Compounds of Formula I may be determined by one skilled in the art. Parasite proliferation was monitored by using stably transfected type I RH-YFP parasites, which constitutively express Yellow Florescent Protein. Proliferation also was tested using a [^3H]-Uracil incorporation assay, as Uracil is incorporated into nucleic acids of T. gondii tachyzoites, but not mammalian cells, as they divide. Complimentary challenge assays ensured that the observed fluorescence data was due to parasite inhibition and not to quenched fluorescence. Pyrimethamine and sulfadiazine were used as positive controls, and DMSO at a concentration of 0.1% was used as the negative control. Because T. gondii is an obligate parasite, compounds that are toxic to host cells will appear to inhibit parasite growth. Therefore, all test compounds were simultaneously evaluated for efficacy and toxicity against human cells.
Test compounds were dissolved in DMSO to make a 10 mM solution, and subsequently diluted with IMDM-C to the concentrations used in bioassay. In the in vitro experiments DMSO concentration was not greater than 0.1% unless otherwise specified. RH-YFP parasites, which stably express Yellow Florescent Protein, were used. Tachyzoites were extracted from HFF cells by double passage through a 25-gauge needle, centrifuged for 15 minutes at 1500 RPM, and resuspended in IMDM-C. Confluent monolayers of HFF cells were infected with parasites in 96-well plates (Falcon 96 Optilux Flat-bottom) with 3,500 parasites in 100 uL per well. One hour after inoculation, test compounds and control media were added for a final volume of 200 uL per well. Parasite proliferation was assessed using [^3H]-Uracil incorporation or YFP Fluorescence assay.
Human Foreskin Fibroblast (HFF) cells were maintained in confluent monolayers in Iscoves's Modified Dulbecco's Medium supplemented with 10% fetal bovine serum, 1% GlutaMAX and 1% penicillin-streptomycin-fungizone (IMDM-C). T. gondii tachyzoites were cultivated in HFF monolayers. Parasites and cells were maintained at 33° C. or 37° C. and 5% CO2. The strains of parasite used in this study include RH, RH-YFP, and Prugnaud FLUC (Type 2 parasites stably transfected with luciferase), Me49 strain, and TgGoatUS4 isolate.
25 μL of 0.1 mCi/mL*^3H]-Uracil or [^3H]-Thymidine was added to each well 24 hours before reading plates. At harvesting, contents of the wells were transferred onto a 96-well UniFilter GF/C filter plates using a Filtermate 196 cell harvester (Packard). [^3H]-Uracil and [^3H]-Thymidine incorporation was measured using a Microplate Scintillation Luminescence Counter (Packard).
72 hours after initiation of the in vitro challenge assay, parasite proliferation was assessed by reading fluorescence of YFP parasites with a Synergy H4 Hybrid Reader (BioTek) and Gen5 1.10 software, using a bottom optics positions, excitation wavelength of 514 nm, and emission wavelength of 540 nm.

[3] = Hydrolytic stability of acylated derivatives (data not shown); type: physicochemical
Protocol: A cursory study of the effect of capping the phenol of 4 via acylation was undertaken. The acylated derivatives 7 were prepared and tested. […] The intrinsic activity of intact 7a cannot yet be ruled out, and this interesting phenomenon is currently under study.

IC50 [1]: 3.8 ng/mL (≈ 0.0119 µM)
Compound: CCN(CC)CCCC(C)Nc1ccnc2cc(Cl)ccc12 (stereo not drawn) [Chloroquine, reference compound]

Compound: Cc1cccc(NC(=O)c2cc(Cl)ccc2O)c1 [Compound 3a]
MIC50 [2]: > 1 µM | MIC90 [2]: > 1 µM

Compound: O=C(Nc1cccc(Cl)c1)c1cc(I)cc(I)c1O [Compound 3aa]
MIC50 [2]: > 1 µM | MIC90 [2]: > 1 µM | activity against T. gondii tachyzoites, in words [2]: no activity

Compound: O=C(Nc1ccc2c(c1)OCCO2)c1cc(Cl)ccc1O [Compound 3ab]
MIC50 [2]: > 1 µM | MIC90 [2]: > 1 µM | activity against T. gondii tachyzoites, in words [2]: devoid of activity

Compound: CCOc1cccc(NC(=O)c2cc(F)ccc2O)c1 [Compound 3ac]
MIC50 [2]: > 1 µM | MIC90 [2]: > 1 µM | activity against T. gondii tachyzoites, in words [2]: no activity

Compound: C#Cc1cccc(NC(=O)c2cc(Cl)ccc2O)c1 [Compound 3d]
MIC50 [2]: > 1 µM | MIC90 [2]: > 1 µM

Compound: N#Cc1cccc(NC(=O)c2cc(Cl)ccc2O)c1 [Compound 3g]
MIC50 [2]: > 1 µM | MIC90 [2]: > 1 µM

Compound: O=C(Nc1ccc([N+](=O)[O-])cc1Cl)c1ccccc1O [Compound 3k]
MIC50 [2]: > 1 µM | MIC90 [2]: > 1 µM | activity against T. gondii tachyzoites, in words [2]: eliminated activity altogether

Compound: O=C(Nc1cc(F)cc(F)c1)c1cc(Cl)ccc1O [Compound 3o]
MIC50 [2]: > 1 µM | MIC90 [2]: > 1 µM | activity against T. gondii tachyzoites, in words [2]: inactive

Compound: O=C(Nc1ccc(Cl)cc1F)c1cc(Cl)ccc1O [Compound 3p, 5-chloro-N-(4-chloro-2-fluorophenyl)-2-hydroxybenzamide]
activity against T. gondii tachyzoites, in words [2]: removed all activity

Compound: COc1ccc(NC(=O)c2cc(Cl)ccc2O)c(OC)c1OC [Compound 3q]
MIC50 [2]: > 1 µM | MIC90 [2]: > 1 µM | activity against T. gondii tachyzoites, in words [2]: devoid of activity

Compound: Cc1cc(C)cc(NC(=O)c2cc(Cl)ccc2O)c1 [Compound 3s]
MIC50 [2]: > 1 µM | MIC90 [2]: > 1 µM

Compound: C#Cc1cc(NC(=O)c2cc(Cl)ccc2O)ccc1F [Compound 3t]
MIC50 [2]: > 1 µM | MIC90 [2]: > 1 µM | activity against T. gondii tachyzoites, in words [2]: inactive

Compound: CCOc1cccc(NC(=O)c2cc(Cl)ccc2O)c1 [Compound 3u]
MIC50 [2]: > 1 µM | MIC90 [2]: > 1 µM

Compound: COc1ccc(NC(=O)c2cc(Cl)ccc2O)cc1OC [Compound 3v]
MIC50 [2]: > 1 µM | MIC90 [2]: > 1 µM | activity against T. gondii tachyzoites, in words [2]: devoid of activity

Compound: CC(C)Oc1cccc(NC(=O)c2cc(Cl)ccc2O)c1 [Compound 3w]
MIC50 [2]: > 1 µM | MIC90 [2]: > 1 µM

Compound: COc1cc(C)cc(NC(=O)c2cc(Cl)ccc2O)c1 [Compound 3x]
MIC50 [2]: > 1 µM | MIC90 [2]: > 1 µM

Compound: O=C(Nc1cccc(Oc2ccccc2)c1)c1cc(Cl)ccc1O [Compound 3y]
MIC50 [2]: > 1 µM | MIC90 [2]: > 1 µM

Compound: O=C(Nc1cccc(OC(F)F)c1)c1cc(Cl)ccc1O [Compound 3z]
MIC50 [2]: > 1 µM | MIC90 [2]: > 1 µM

Compound: Nc1ccc(NC(=O)c2cc(Cl)ccc2O)c(Cl)c1 [Compound 5]
MIC50 [2]: > 1 µM | MIC90 [2]: > 1 µM | activity against T. gondii tachyzoites, in words [2]: all activity was lost

Compound: COC(=O)[C@@H]1CCCC1C(=O)Oc1ccc(Cl)cc1C(=O)Nc1ccc([N+](=O)[O-])cc1Cl (stereo partly drawn) [Compound 7b]
stability against hydrolysis [3]: much more stable against hydrolysis | MIC50 [2]: > 1 µM | MIC90 [2]: > 1 µM | activity against T. gondii tachyzoites, in words [2]: devoid of activity

Compound: O=C(Nc1ccc([N+](=O)[O-])cc1Cl)c1cc(Cl)ccc1OC(=O)N1CCOCC1 [Compound 7c]
stability against hydrolysis [3]: much more stable against hydrolysis | MIC50 [2]: > 1 µM | MIC90 [2]: > 1 µM | activity against T. gondii tachyzoites, in words [2]: devoid of activity

Compound: CN1CCN(C(=O)Oc2ccc(Cl)cc2C(=O)Nc2ccc([N+](=O)[O-])cc2Cl)CC1 [Compound 7d, 4-chloro-2-((2-chloro-4-nitrophenyl)carbamoyl)phenyl 4-methylpiperazine-1-carboxylate]
stability against hydrolysis [3]: much more stable against hydrolysis | activity against T. gondii tachyzoites, in words [2]: devoid of activity

Compound: Cc1cccc(NC(=O)c2cc(F)ccc2O)c1 [Compound 10a]
MIC50 [2]: > 1 µM | MIC90 [2]: > 1 µM | activity against T. gondii tachyzoites, in words [2]: inactive

Compound: COc1cccc(NC(=O)c2cc(F)ccc2O)c1 [Compound 10b]
MIC50 [2]: > 1 µM | MIC90 [2]: > 1 µM | activity against T. gondii tachyzoites, in words [2]: inactive
